Measured values taken from article PMC8537277 (Pharmaceuticals, 2021).
Read-outs that look alike come from different tables or passages of the source. Where a SMILES comes first, the peptide text is derived from it.

What was measured:
[1] = tested on: A/Parma/24/09 H1N1 oseltamivir-resistant virus; settings: reference peptides; ref Scala et al. (2017) [14]; read-out: HI Titer (IC50) A/Parma/24/09 H1N1; cited from earlier work
[2] = tested on: A/Parma/24/09 H1N1 oseltamivir-resistant virus
[3] = A/Parma/24/09 oseltamivir-resistant virus, 1 h

Row | SMILES | IC50 [1] [nM] | IC50 [2, 3] [pM] | other results
1 | CC(=O)N[C@@H](CO)C(=O)N[C@@H](CC(C)C)C(=O)N[C@@H](CC(=O)O)C(=O)N[C@@H](CS)C(N)=O [Peptide 2, Ac-SLDC-NH2] (Ac-SLDC-NH2) | 6 | – | –
2 | CC(=O)N[C@@H](CO)C(=O)N[C@@H](C)C(=O)N[C@@H](Cc1c[nH]cn1)C(=O)N[C@@H](CO)C(N)=O [Peptide 4, Ac-SAHS-NH2] (Ac-SAHS-NH2) | – | – | IC50 ([2]; read-out: HI Titer (IC50) A/Parma/24/09 H1N1, 50% inhibition of virus-induced hemagglutination, N.D. = not detectable at maximum tested concentration 12.5 × 10^3 nM): 500 pM
3 | CC(=O)N[C@@H](CO)C(=O)N[C@@H](CCCCN)C(=O)N[C@@H](C)C(=O)N[C@@H](CO)C(N)=O [Peptide 5] (Ac-SKAS-NH2) | – | 2.9 | –
4 | CC(=O)N[C@@H](CO)C(=O)N[C@@H](CC(C)C)C(=O)N[C@@H](CC(=O)O)C(=O)N[C@@H](C)C(N)=O [Peptide 10] (Ac-SLDA-NH2) | – | 6100 | –
5 | CC(=O)N[C@@H](CO)C(=O)N[C@@H](CCCCN)C(=O)N[C@@H](Cc1c[nH]cn1)C(=O)N[C@@H](CO)C(N)=O [Peptide 1, Ac-SKHS-NH2] (Ac-SKHS-NH2) | 1.5 | – | –
6 | CC(=O)N[C@@H](CO)C(=O)N[C@@H](C)C(=O)N[C@@H](CC(=O)O)C(=O)N[C@@H](CS)C(N)=O [Peptide 8] (Ac-SADC-NH2) | – | 0.0022 | –
